The values that follow come from US10710986B2, “PD-1/PD-L1 inhibitors” (Gilead Sciences, Inc., priority 2018, dated 2020).

pIC50: −log10 of the molar value.

Chain of PD-1/PD-L1 (Q9NZQ7 19-238): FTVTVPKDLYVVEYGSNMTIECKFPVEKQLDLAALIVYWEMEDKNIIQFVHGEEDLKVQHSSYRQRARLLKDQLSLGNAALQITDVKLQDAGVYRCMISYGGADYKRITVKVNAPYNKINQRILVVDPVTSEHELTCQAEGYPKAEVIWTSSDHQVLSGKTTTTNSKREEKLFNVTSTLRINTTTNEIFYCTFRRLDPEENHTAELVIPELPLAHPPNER

This assay has as its target PD-1/PD-L1 (Homo sapiens (Human), UniProt Q9NZQ7). Briefly: PD-1/PD-L1 biochemical protein-protein interaction assay (ALPHA). The conditions noted are these: 0.3 nM His tagged PD-L1, 2.5 nM biotinylated Fc-PD-1, 60 minutes at 25° C., read-out: IC50 PD-L1-PD1.
As for `COc1nc(-c2cccc(-c3cccc(-c4cnc(CNC[C@@H]5CCC(=O)N5)c(OC)n4)c3Cl)c2Cl)cnc1CNCCc1cncc(O)c1` [compound 412], the negative-log IC50 (pIC50) was 9.73.

On to `COc1nc(-c2cccc(-c3cccc(-c4cnc(CNC[C@@H]5CCC(=O)N5)c(OC)n4)c3Cl)c2Cl)cnc1CNCC(O)CN1CCCC1` (stereo partly drawn) [compound 413], for which the pIC50 is 9.79.

For the compound `COc1ccnc2c1CN(Cc1ncc(-c3cccc(-c4cccc(-c5cnc(CNC[C@@H]6CCC(=O)N6)c(OC)n5)c4Cl)c3Cl)nc1OC)C2` [compound 414], the negative-log IC50 (pIC50) was 9.25.

On to `COc1nc(-c2cccc(-c3cccc(-c4cnc(CNC5CCN(C(=O)c6ccoc6)CC5)c(OC)n4)c3Cl)c2Cl)cnc1CNC[C@@H]1CCC(=O)N1` [compound 415], for which the pIC50 was 9.71.

For the compound `COc1nc(-c2cccc(-c3cccc(-c4cnc(CNC5CCN(C)C(=O)C5)c(OC)n4)c3Cl)c2Cl)cnc1CNC[C@@H]1CCC(=O)N1` (stereo partly drawn) [compound 416], the pIC50 is 9.85.

`COc1nc(-c2cccc(-c3cccc(-c4cnc(CNC[C@@H]5CCC(=O)N5)c(OC)n4)c3Cl)c2Cl)cnc1CNCCc1ccccn1` [compound 417]: the negative logarithm of the IC50 (pIC50) is 9.71.

Take `COc1nc(-c2cccc(-c3cccc(-c4cnc(CNC[C@@H]5CCC(=O)N5)c(OC)n4)c3Cl)c2Cl)cnc1CNCc1ccccn1` [compound 418]: the pIC50 was 9.66.

For `COc1nc(-c2cccc(-c3cccc(-c4cnc(CNC[C@@H]5CCC(=O)N5)c(OC)n4)c3Cl)c2Cl)cnc1CNCCCc1nc2ccccc2[nH]1` [compound 419], the negative-log IC50 (pIC50) was 9.27.

Turning to `COc1nc(-c2cccc(-c3cccc(-c4cnc(CNC[C@@H]5CCC(=O)N5)c(OC)n4)c3Cl)c2Cl)cnc1CNCc1ncccn1` [compound 420], the negative logarithm of the IC50 (pIC50) was 9.35.

With `COc1nc(-c2cccc(-c3cccc(-c4cnc(CNC5(c6ccccn6)CC5)c(OC)n4)c3Cl)c2Cl)cnc1CNC[C@@H]1CCC(=O)N1` [compound 421], the negative logarithm of the IC50 (pIC50) is 9.22.

For the compound `COc1nc(-c2cccc(-c3cccc(-c4cnc(CNC[C@@H]5CCC(=O)N5)c(OC)n4)c3Cl)c2Cl)cnc1CNCc1ccncc1` [compound 422], the pIC50 was 9.26.

On to `COc1nc(-c2cccc(-c3cccc(-c4cnc(CN5C[C@H](O)C[C@H]5CO)c(OC)n4)c3Cl)c2Cl)cnc1CNC[C@@H]1CCC(=O)N1` [compound 423], for which the pIC50 was 9.63.

Consider `COc1nc(-c2cccc(-c3cccc(-c4cnc(CNC5(c6cccnc6)CC5)c(OC)n4)c3Cl)c2Cl)cnc1CNC[C@@H]1CCC(=O)N1` [compound 424], for which the negative logarithm of the IC50 (pIC50) was 9.21.

Regarding `COc1nc(-c2cccc(-c3cccc(-c4cnc(CNC[C@@H]5CCC(=O)N5)c(OC)n4)c3Cl)c2Cl)cnc1CNCc1cccnc1` [compound 425], the pIC50 was 9.38.

Take `COc1nc(-c2cccc(-c3cccc(-c4cnc(CNCC5(O)CC5)c(OC)n4)c3Cl)c2Cl)cnc1CNC[C@@H]1CCC(=O)N1` [compound 426]: the pIC50 was 9.56.

For the compound `COc1nc(-c2cccc(-c3cccc(-c4cnc(CN5CC[C@@H](OC)C5)c(OC)n4)c3Cl)c2Cl)cnc1CNC[C@@H]1CCC(=O)N1` [compound 427], the negative-log IC50 (pIC50) is 9.87.

For `COc1nc(-c2cccc(-c3cccc(-c4cnc(CNC(CO)(CO)CO)c(OC)n4)c3Cl)c2Cl)cnc1CNC[C@@H]1CCC(=O)N1` [compound 428], the negative logarithm of the IC50 (pIC50) was 9.57.

With `COc1nc(-c2cccc(-c3cccc(-c4cnc(CNCC5(C#N)CC5)c(OC)n4)c3Cl)c2Cl)cnc1CNC[C@@H]1CCC(=O)N1` [compound 429], the negative logarithm of the IC50 (pIC50) was 9.46.

As to `COc1nc(-c2cccc(-c3cccc(-c4cnc(CN5CC[C@H](OC)C5)c(OC)n4)c3Cl)c2Cl)cnc1CNC[C@@H]1CCC(=O)N1` [compound 430], the pIC50 is 10.15.

On to `COc1nc(-c2cccc(-c3cccc(-c4cnc(CN5CC[C@H](O)C5)c(OC)n4)c3Cl)c2Cl)cnc1CNC[C@@H]1CCC(=O)N1` [compound 431], for which the negative logarithm of the IC50 (pIC50) is 9.91.

Consider `COc1nc(-c2cccc(-c3cccc(-c4cnc(CN[C@H]5C[C@](O)(CF)C5)c(OC)n4)c3Cl)c2Cl)cnc1CNC[C@@H]1CCC(=O)N1` [compound 432], for which the pIC50 was 10.08.

Usually pIC50 stands for −log10 of the IC50, conventionally taken in molar units.
